Test results published in PubChem BioAssay (NCI).
Values joined by “and” are separate entries in the source; they are usually repeats but may differ in a detail not shown here. Identical values can stand only once.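 Assay format: 96-well plates, 48-hour exposure. GI50: concentration for 50% inhibition of growth. Definition used: TGI = concentration required for complete inhibition of growth.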

What was measured:
Experiment in all cases: NCI tumour cell line growth inhibition, 48 h
HOP-92 NSCLC = test system: HOP-92 NSCLC
MDA-MB-435 = test system: MDA-MB-435
OVCAR-5 ovarian = test system: OVCAR-5 ovarian
RXF 393 renal = test system: RXF 393 renal
SF-539 CNS = test system: SF-539 CNS
SK-OV-3 ovarian = test system: SK-OV-3 ovarian
SNB-19 CNS = test system: SNB-19 CNS
UACC-257 melanoma = test system: UACC-257 melanoma
HT29 colon = test system: HT29 colon
MALME-3M melanoma = test system: MALME-3M melanoma

## CCCCCCCCO/N=C\c1c2c(O)c3c(O)c(C)c4c(c3c1O)C(=O)C(C)(O/C=C\C(OC)C(C)C(OC(C)=O)C(C)C(O)C(C)C(O)C(C)/C=C\C=C(\C)C(=O)N2)O4 (stereo not drawn)
HOP-92 NSCLC
  GI50: 1.38 µM
  TGI: 5.32 µM
MDA-MB-435
  GI50: 1.43 µM
  TGI: 5.9 µM
OVCAR-5 ovarian
  GI50: 2.12 µM
  TGI: 8.08 µM
RXF 393 renal
  GI50: 1.14 µM
  TGI: 3.18 µM
SF-539 CNS
  GI50: 2.74 µM
  TGI: 9.75 µM
SK-OV-3 ovarian
  GI50: 1.86 µM
  TGI: 6.68 µM
SNB-19 CNS
  GI50: 2.42 µM
  TGI: 8.93 µM
UACC-257 melanoma
  GI50: 1.34 µM
  TGI: 4.69 µM

## N#Cc1c(SCc2ccccc2)nc2[nH]c(=S)[nH]c(=S)c2c1-c1ccco1
HOP-92 NSCLC
  GI50: 3.45 µM
  TGI: 26.2 µM
HT29 colon
  GI50: > 100 µM
  TGI: > 100 µM
MDA-MB-435
  GI50: 59.5 µM
  TGI: > 100 µM
OVCAR-5 ovarian
  GI50: 66.4 µM
  TGI: > 100 µM
RXF 393 renal
  GI50: 37.9 µM
  TGI: > 100 µM
SF-539 CNS
  GI50: 31.7 µM
  TGI: > 100 µM
SK-OV-3 ovarian
  GI50: > 100 µM
  TGI: > 100 µM
SNB-19 CNS
  GI50: 62.2 µM
  TGI: > 100 µM
UACC-257 melanoma
  GI50: 66.5 µM
  TGI: > 100 µM

## N#Cc1c(N)nc(N2CCOCC2)c(C#N)c1-c1cccc(O)c1
HOP-92 NSCLC
  GI50: 37.6 µM
  TGI: > 100 µM
HT29 colon
  GI50: > 100 µM
  TGI: > 100 µM
MDA-MB-435
  GI50: > 100 µM
  TGI: > 100 µM
OVCAR-5 ovarian
  GI50: > 100 µM
  TGI: > 100 µM
RXF 393 renal
  GI50: 38.1 µM
  TGI: 95.1 µM
SF-539 CNS
  GI50: > 100 µM
  TGI: > 100 µM
SK-OV-3 ovarian
  GI50: 70.9 µM
  TGI: > 100 µM
SNB-19 CNS
  GI50: > 100 µM
  TGI: > 100 µM
UACC-257 melanoma
  GI50: > 100 µM
  TGI: > 100 µM

## CCC(=O)Nc1ccc2c(c1)CN1C(=O)c3ccccc3C1=N2
HOP-92 NSCLC
  GI50: > 100 µM
  TGI: > 100 µM
HT29 colon
  GI50: > 100 µM
  TGI: > 100 µM
MALME-3M melanoma
  GI50: > 100 µM
  TGI: > 100 µM
MDA-MB-435
  GI50: > 100 µM
  TGI: > 100 µM
OVCAR-5 ovarian
  GI50: > 100 µM
  TGI: > 100 µM
SF-539 CNS
  GI50: > 100 µM
  TGI: > 100 µM
SK-OV-3 ovarian
  GI50: > 100 µM
  TGI: > 100 µM
SNB-19 CNS
  GI50: > 100 µM
  TGI: > 100 µM
UACC-257 melanoma
  GI50: > 100 µM
  TGI: > 100 µM

## O=C1NC(=O)[C@H]2C3C=CC([C@@H]12)[C@@H]1C(=O)NC(=O)[C@H]31
HOP-92 NSCLC
  TGI: > 100 µM
MALME-3M melanoma
  TGI: > 100 µM
MDA-MB-435
  TGI: > 100 µM
OVCAR-5 ovarian
  TGI: > 100 µM
RXF 393 renal
  TGI: > 100 µM
SF-539 CNS
  TGI: > 100 µM
SNB-19 CNS
  TGI: > 100 µM
UACC-257 melanoma
  TGI: > 100 µM

## CC1(C)CC2=NOS3=C2C(=NO3)C1c1ccccn1 (stereo not drawn)
HOP-92 NSCLC
  TGI: > 100 µM
HT29 colon
  TGI: > 100 µM
MALME-3M melanoma
  TGI: > 100 µM
MDA-MB-435
  TGI: 39 µM
OVCAR-5 ovarian
  TGI: > 100 µM
SF-539 CNS
  TGI: > 100 µM
SK-OV-3 ovarian
  TGI: > 100 µM
SNB-19 CNS
  TGI: > 100 µM
UACC-257 melanoma
  TGI: > 100 µM

## Cc1cc2c(cc1C)[n+](=O)c(C(=O)c1cccs1)c(C(F)(F)F)n2[O-]
HOP-92 NSCLC
  GI50: 1.53 µM and 5.5 µM
  TGI: 10.6 µM and 37.9 µM
HT29 colon
  GI50: 9.97 µM
  TGI: 50 µM
MDA-MB-435
  GI50: 4.45 µM and 4.89 µM
  TGI: 16 µM and 21.4 µM
OVCAR-5 ovarian
  GI50: 16.7 µM and 4.47 µM
  TGI: 50 µM and 17.4 µM
RXF 393 renal
  GI50: 19.7 µM and 9.21 µM
  TGI: 50 µM and 29.3 µM
SF-539 CNS
  GI50: 1.39 µM
  TGI: 7.69 µM
SK-OV-3 ovarian
  GI50: 7.95 µM and 10.3 µM
  TGI: 50 µM and 49 µM
SNB-19 CNS
  GI50: 4.61 µM and 7.76 µM
  TGI: 50 µM and 52 µM
UACC-257 melanoma
  GI50: 2.4 µM and 2.61 µM
  TGI: 38 µM and 6.55 µM

## COc1cc(/C=C/C(=O)CC(=O)/C=C/c2ccc(OC(=O)CCNC34CC5CC(CC(C5)C3)C4)c(OC)c2)ccc1OC(=O)CCNC12CC3CC(CC(C3)C1)C2
HOP-92 NSCLC
  GI50: 2.64 µM
  TGI: 17.6 µM
HT29 colon
  GI50: 1.75 µM
  TGI: 3.2 µM
MALME-3M melanoma
  GI50: 5.28 µM
  TGI: 17.9 µM
MDA-MB-435
  GI50: 2.08 µM
  TGI: 6.53 µM
OVCAR-5 ovarian
  GI50: 4.34 µM
  TGI: 16.8 µM
SF-539 CNS
  GI50: 2.09 µM
  TGI: 4.81 µM
SK-OV-3 ovarian
  GI50: 6.75 µM
  TGI: 27.2 µM
SNB-19 CNS
  GI50: 4.65 µM
  TGI: 18.4 µM
UACC-257 melanoma
  GI50: 4.24 µM
  TGI: 19.4 µM

## COc1cc(/C=C2\C[C@H]3[C@@H]4CC=C5C[C@@H](OC(C)=O)CC[C@]5(C)[C@H]4CC[C@]3(C)[C@H]2OC(C)=O)ccc1OCCCn1ccnc1
HOP-92 NSCLC
  GI50: 9.45 µM
  TGI: 20 µM
HT29 colon
  GI50: 18.5 µM
  TGI: > 50 µM
MDA-MB-435
  GI50: 10.2 µM
  TGI: 22.1 µM
OVCAR-5 ovarian
  GI50: 12.7 µM
  TGI: 33.6 µM
RXF 393 renal
  GI50: 1.78 µM
  TGI: 10.4 µM
SF-539 CNS
  GI50: 4.72 µM
  TGI: 12.5 µM
SNB-19 CNS
  GI50: 21.3 µM
  TGI: > 50 µM
UACC-257 melanoma
  GI50: 8.43 µM
  TGI: 17.3 µM

## COc1ccc2c(c1)C(=O)c1c-2c(N2CCN(C(=O)CN(C)C)CC2)nc2ccccc12
HOP-92 NSCLC
  GI50: 5.69 µM
  TGI: 24.2 µM
HT29 colon
  GI50: 2.13 µM
  TGI: 12.7 µM
MALME-3M melanoma
  GI50: 23 µM
  TGI: 58.1 µM
MDA-MB-435
  GI50: 30.2 µM
  TGI: 98 µM
OVCAR-5 ovarian
  GI50: 28.8 µM
  TGI: 67.3 µM
SF-539 CNS
  GI50: 15.1 µM
  TGI: 30.3 µM
SK-OV-3 ovarian
  GI50: 19.6 µM
  TGI: > 100 µM
SNB-19 CNS
  GI50: 16.6 µM
  TGI: 35.9 µM
UACC-257 melanoma
  GI50: 12.1 µM
  TGI: 30.3 µM

## CCCN1C(=O)/C(=C/c2ccc(O)cc2)SC1=Nc1ccccc1
HOP-92 NSCLC
  GI50: 20.3 µM
  TGI: 46.5 µM
HT29 colon
  GI50: 33.5 µM
  TGI: 86.7 µM
MDA-MB-435
  GI50: 21.6 µM
  TGI: 41.5 µM
OVCAR-5 ovarian
  GI50: 21.7 µM
  TGI: 44.2 µM
RXF 393 renal
  GI50: 23.2 µM
  TGI: 51.4 µM
SK-OV-3 ovarian
  GI50: 18 µM
  TGI: 40.8 µM
SNB-19 CNS
  GI50: 21.1 µM
  TGI: 46.5 µM
UACC-257 melanoma
  GI50: > 100 µM
  TGI: > 100 µM
